From patent US8765198B2, “Anti-stretch mark active agent, and compositions containing same” (Laboratoires Expanscience, priority 2008, dated 2014) come the findings set out here.

Holding throughout (assay type): cell-based
Data set [1] concerns IL-1β. Description: Anti-inflammatory potential: IL-1β ELISA in keratinocytes stimulated with PMA. As for the experimental part: Keratinocytes were inoculated in KGM2 medium. After 24 hours of incubation, the cells were pre-treated with 0.2% (dry matter) arabinogalactan for 24 hours. Next, the cells were stimulated by adding 10 μg/ml PMA (phorbol-12-myristate-13-acetate; Sigma) for 16 hours, in order to mimic inflammation.
At the end of the treatment, the cell supernatants were collected and IL-1β was assayed using ELISA kits (R&D Systems).
On the cell layers, a neutral red assay was carried out: optical density, proportional to the quantity of living cells, is read at 540 nm.
The quantity of IL-1β is expressed by living cells according to the formula: OD ELISA IL-1β/OD540.
(§1) The significance of the results was evaluated by a Student's t-test: *p<0.05, **p<0.01.
Background: ELISA stands for enzyme-linked immunosorbent assay.

The test system of data set [2] is collagen I gene. Description: Preventive effect on collagen I gene expression in fibroblasts treated with hydrocortisone (hormonal environment).
Source text: (§2) The quantitative real-time polymerase chain reaction (qRT-PCR) is a method that makes it possible to measure in a specific and quantitative way the expression of genes of interest by amplification. Quantification is based on the real-time monitoring of gene amplification using SYBR Green as a reporter system. SYBR Green is a molecule with fluorescent properties which is intercalated in double-stranded DNA. […]
(§3) The quantities of DNA are compared in the exponential part, the time during which the increase in the quantity of DNA is proportional to the initial quantity of the matrix. […]
(§4) At the end of the treatment of the cells, total RNA was extracted (RNeasy MiniKit) and then assayed quantitatively in chips using the Experion system (Experion RNA StdSens kit). […]
(§5) Expression of the genes of reference is analyzed in the same samples as those for which the expression of the genes of interest is evaluated in order to normalize the results.
(§6) Variation in the number of copies of the gene of interest during the treatment is then calculated according to the following formula: ΔΔCt=ΔCtcontrol−ΔCttreatment
(§7) Finally, the relative quantity or level of expression of the genes of interest normalized by the level of expression of the reference genes in the untreated and treated samples is obtained by the formula RQ=2^ΔΔCt.
as §1

Data set [3] concerns gene coding for collagen type I. Description: Gene expression of collagen I in normal fibroblasts by quantitative real-time PCR. The conditions noted are these: 48-hour treatment, normalized to GAPDH, 0.2% arabinogalactan or 5 ng/ml TGF-β1.
Source text: as §2, §3, §4, §5, §6, §7, §1
A general note: Quantitative PCR measures a nucleic acid by following its amplification.

Data set [4] concerns collagen type III gene. In words: Gene expression of collagen III in normal fibroblasts by quantitative real-time PCR. As to conditions: 48 hours of treatment, 0.2% dry matter arabinogalactan or 5 ng/ml TGF-β1.
Source text: as §2, §3, §4, §5, §6, §7, §1

In data set [5] the test system is normal human keratinocytes. In words: Prerequisite cutaneous tolerance: pro-inflammatory potential, interleukins 1 and 8 and TNF-α assayed in the cell supernatant. The conditions noted are these: 0.2% dry matter. The procedure:
A. Prerequisite Cutaneous Tolerance • Inflammation: The pro-inflammatory potential of arabinogalactan was evaluated on normal human keratinocytes. Interleukins 1 and 8 as well as TNF-α, early mediators of inflammation, were assayed in the cell supernatant.

The subject of data set [6] is fibroblasts. In words: Study of fibroblast proliferation by the MTT method. As to conditions: 0.2% arabinogalactan, 48 hours of treatment. As for the experimental part:
The MTT [3-(4,5-dimethylthiazol-2-yl)-2,5-diphenyltetrazolium bromide] assay is a colorimetric test which measures cell viability. MTT is a yellow water-soluble tetrazolium salt; metabolically active cells are capable of reducing it into formazan blue crystals.
At D0, the fibroblasts are inoculated in RPMI medium with 1% FCS.
At D1, the cells are treated with RPMI with 10% FCS (positive control) or with 0.2% arabinogalactan for 48 hours.
At the end of the treatment, cell viability is quantified by an MTT assay: after 3 hours of contact with MTT, the formazan crystals formed are solubilized by DMSO and the optical density, proportional to the quantity of metabolically active and thus living cells, is read at 570 nm against the blank (without cells).
as §1

As for `CCCCCCCCCCCCCC(=O)O[C@@H]1[C@@H](C)[C@@]2(O)[C@@H](C=C(CO)C[C@]3(O)C(=O)C(C)=C[C@@H]23)[C@@H]2C(C)(C)[C@]12OC(C)=O` [PMA, phorbol-12-myristate-13-acetate, reference compound], the “salting out of IL-1β under stress” value in data set [1] (keratinocytes, 10 μg/ml PMA 16 hours) is “massively salt-out IL-1β”.
Regarding `C[C@]12CCC(=O)C=C1CC[C@@H]1[C@@H]2[C@@H](O)C[C@@]2(C)[C@H]1CC[C@]2(O)C(=O)CO` [hydrocortisone, reference compound], in data set [2] (fibroblasts, 50 μM hydrocortisone, 48 hours of treatment), the “inhibition of expression of the collagen I gene” value came out at 57%.
“TGF-β: growth factor with a strong capacity to induce molecules of the extracellular matrix; used as a positive control [reference compound]”: the “increase of expression of the gene coding for collagen type I” value in data set [3] is “+223%”. In data set [4], the “increase of expression of the collagen type III gene” value is listed as 147%.
For arabinogalactan, the pro-inflammatory potential entry in data set [5] is reported as “not pro-inflammatory”. The “salting out of interleukins 1 and 8 or TNF-α” value in data set [5] (cell supernatant) was “does not lead to salting out of interleukins 1 and 8 or TNF-α”. Besides, the “fibroblast proliferation / cell regeneration (MTT, OD570)” value in data set [6] is reported as “+20%”. For the same compound, the “increase of expression of the gene coding for collagen type I” value in data set [3] was “+38%”. In addition, the “increase of expression of the collagen type III gene” value in data set [4] is recorded as “+81%”. For the same compound, the “increase of expression of collagen I in the presence of hydrocortisone” value in data set [2] (fibroblasts pretreated 24 hours with 0.2% arabinogalactan, then arabinogalactan + 50 μM hydrocortisone 48 hours) is on record as 37%. The “inhibition of salting out of IL-1β (OD ELISA/OD540)” value in data set [1] (keratinocytes pretreated 24 hours with 0.2% dry matter arabinogalactan, then 10 μg/ml PMA 16 hours) is recorded as −21%.
